Values quoted from earlier work, collected in patent US8197846B2, “Sustained release pharmaceutical composition” (Astellas Pharma Inc., priority 2003, dated 2012).
Where a name gives a salt, the structure may show the parent alone.

Tests used:
[1] = not given; remark: listed apart in the source

frequency of orthostatic syncope, headache and sleepiness (package insert, psychoneural area) | day on which plasma concentration profiles reached the steady state ([1]; repeated administration per os for seven days) [days] | Compound | adverse reactions when administered as powder triturated with lactose (powder triturated with lactose) | adverse reactions (including abnormal clinical data) presumably related to the agent (104 cases among 4724 cases, approval and post marketing surveillance in Japan) [%] | frequency of hypotension, postural hypotension, blood pressure, tachycardia and palpitation (package insert, circulatory area) | Cmax and AUC versus dose ([1]; 0.1 to 0.6 mg oral, healthy adult volunteers)
– | – | CCOc1ccccc1OCCN[C@H](C)Cc1ccc(OC)c(S(N)(=O)=O)c1 [Tamsulosin, (R)(−)-5-[2-[[2-(o-ethoxyphenoxy)ethyl]-amino]propyl]-2-methoxybenzenesulfonamide] | postural hypotension was induced | – | – | –
less than 0.1% | 4 | CCOc1ccccc1OCCN[C@H](C)Cc1ccc(OC)c(S(N)(=O)=O)c1 [tamsulosin hydrochloride] | – | 2.2 | less than 0.1% | increased almost in proportion to the dose administered
